Tested on: 2G12
Assay: Binding curve and KD determination of 2G12-glycopeptide interaction (radiolabeled glycopeptide, protein G magnetic bead capture, scintillation counting)
Conditions: for Fmax [%] / Kd: Table 4, error = standard error of fit; for Fmax [%]: maximal fraction bound from curve fit; for Kd: ribosomally translated radiolabeled glycopeptide with His6/FLAG tag, room temperature, fit Fbound=(Fmax[2G12])/(KD+[2G12])
Experimental: The resulting mRNAs were purified by denaturing PAGE or MEGAclear kit (Ambion), and 1 μM RNA was used in PURE system translation (reaction volume of translation varied). Typically, 25 μL of translated reaction was diluted with 100 μL of binding buffer (50 mM Tris-HCl, pH 7.8, 300 mM NaCl, 5 mM β-mercaptoethanol) and 25 μL of Ni-NTA agarose suspension (Qiagen), and tumbled at room temperature for 1 h. The resins were transferred to 0.22 μm spin-filter rinsing with 100 μL of bind buffer, and washed with 3×200 μL of bind buffer and 2×200 μL of wash buffer (50 mM Tris-HCl, pH 7.8, 5 mM β-mercaptoethanol). The bound peptides were eluted with 2×25 μL of 0.1% TFA. The eluted peptides were analyzed by MALDI-TOF MS, using α-Cyano-4-hydroxycinnamic acid matrix (Sigma), with or without desalting with ZipTip C18 resin (Millipore). For calibration of MALDI-TOF-MS, at least two of the following standards, bovine insulin, E. coli thioredoxin and/or horse apomyoglobin were used. To quantitate peptide yields, the radioactivities were measured by liquid scintillation counting. For the click reaction, the translated and purified peptides were mixed with 0.1% (v/v) Triton X-100, and then dialyzed against H2O containing 0.1% (v/v) Triton X-100 using Slide-A-Lyzer MINI Dialysis Devices, 3.5K MWCO (Thermo Scientific) overnight to desalt. After dialysis, the peptides were divided into two portions: one was glycosylated via the click reaction, while the other was saved as a non-glycosylated peptide control. […] The glycosylated peptide (<4 pmol) was incubated with 100 nM 2G12 in selection buffer (40 μL) at room temp. The solution was then tumbled 30 min with 0.12 mg of equilibrated Dynabeads Protein G to capture 2G12-glycopeptide complex. Beads were then washed with 3×40 μL of selection buffer and resuspended in 10 μL of selection buffer. The resuspended beads were heated at 70° C. for 30 min to denature 2G12 and elute glycopeptides, chilled on ice for 5 min, and tumbled at room temperature for 10 min. The magnetically isolated supernatant was recovered and the beads were rinsed with 10 μL of selection buffer.
Then, the solution was added to 0.12 mg of pre-equilibrated Dynabeads Protein G and tumbled at room temperature for 30 min. The supernatant was removed and the beads were washed with 3×40 μL of selection buffer. The radioactivities of the supernatant and wash solutions were measured by liquid scintillation counting as unbound fractions. […] The beads were resuspended in 40 μL of selection buffer, heated at 70° C. for 30 min to elute the bound glycopeptides, chilled on ice for 5 min, and tumbled at room temperature for 10 min. The supernatant was removed, and the beads were washed with 40 μL of selection buffer and resuspended in 40 μL of selection buffer. The radioactivities of these solutions and suspensions were measured by liquid scintillation counting separately and the values were combined as apparent bound fractions. […] All experiments were done at least in triplicate. KDs were calculated as described in the footnote of Table 4 (below).

## CC[C@H](C)[C@H](NC(=O)[C@H](CCC(N)=O)NC(=O)[C@H](CCCCN)NC(=O)[C@H](CC(C)C)NC(=O)[C@H](Cc1c[nH]cn1)NC(=O)[C@H](CC(C)C)NC(=O)[C@@H](NC(=O)[C@H](CC(=O)O)NC(=O)[C@H](CCc1cn(C2CCC(OC3O[C@H](CO[C@H]4O[C@H](CO[C@H]5O[C@H](CO)[C@@H](O)[C@H](O)[C@@H]5O[C@H]5O[C@H](CO)[C@@H](O)[C@H](O)[C@@H]5O)[C@@H](O)[C@H](O[C@H]5O[C@H](CO)[C@@H](O)[C@H](O)[C@@H]5O[C@H]5O[C@H](CO)[C@@H](O)[C@H](O)[C@@H]5O)[C@@H]4O)[C@@H](O)[C@H](O[C@H]4O[C@H](CO)[C@@H](O)[C@H](O)[C@@H]4O[C@H]4O[C@H](CO)[C@@H](O)[C@H](O)[C@@H]4O[C@H]4O[C@H](CO)[C@@H](O)[C@H](O)[C@@H]4O)[C@@H]3O)CC2)nn1)NC=O)[C@@H](C)O)C(=O)NCC(=O)NCC(=O)N[C@@H](CCc1cn(C2CCC(OC3O[C@H](CO[C@H]4O[C@H](CO[C@H]5O[C@H](CO)[C@@H](O)[C@H](O)[C@@H]5O[C@H]5O[C@H](CO)[C@@H](O)[C@H](O)[C@@H]5O)[C@@H](O)[C@H](O[C@H]5O[C@H](CO)[C@@H](O)[C@H](O)[C@@H]5O[C@H]5O[C@H](CO)[C@@H](O)[C@H](O)[C@@H]5O)[C@@H]4O)[C@@H](O)[C@H](O[C@H]4O[C@H](CO)[C@@H](O)[C@H](O)[C@@H]4O[C@H]4O[C@H](CO)[C@@H](O)[C@H](O)[C@@H]4O[C@H]4O[C@H](CO)[C@@H](O)[C@H](O)[C@@H]4O)[C@@H]3O)CC2)nn1)C(=O)N1CCC[C@H]1C(=O)N[C@@H](CC(N)=O)C(=O)N[C@@H](CS)C(=O)N[C@H](C(=O)N[C@H](C(=O)N[C@@H](CCC(N)=O)C(=O)N[C@@H](CCC(N)=O)C(=O)N[C@@H](CC(=O)O)C(=O)N[C@H](C(=O)N[C@@H](CCCNC(=N)N)C(=O)N[C@@H](CCc1cn(C2CCC(OC3O[C@H](CO[C@H]4O[C@H](CO[C@H]5O[C@H](CO)[C@@H](O)[C@H](O)[C@@H]5O[C@H]5O[C@H](CO)[C@@H](O)[C@H](O)[C@@H]5O)[C@@H](O)[C@H](O[C@H]5O[C@H](CO)[C@@H](O)[C@H](O)[C@@H]5O[C@H]5O[C@H](CO)[C@@H](O)[C@H](O)[C@@H]5O)[C@@H]4O)[C@@H](O)[C@H](O[C@H]4O[C@H](CO)[C@@H](O)[C@H](O)[C@@H]4O[C@H]4O[C@H](CO)[C@@H](O)[C@H](O)[C@@H]4O[C@H]4O[C@H](CO)[C@@H](O)[C@H](O)[C@@H]4O)[C@@H]3O)CC2)nn1)C(=O)N[C@H](C(=O)N[C@@H](CO)C(=O)N[C@H](C(=O)N1CCC[C@H]1C(=O)N[C@@H](Cc1ccc(O)cc1)C(=O)N[C@H](C(=O)N[C@@H](Cc1ccc(O)cc1)C(=O)N[C@H](C(=O)N[C@@H](Cc1c[nH]c2ccccc12)C(=O)N1CCC[C@H]1C(=O)NCC(=O)N[C@@H](CO)C(=O)NCC(=O)N[C@@H](CO)C(=O)N[C@@H](CC(C)C)C(=O)NCC(=O)N[C@@H](Cc1c[nH]cn1)C(=O)N[C@@H](Cc1c[nH]cn1)C(=O)N[C@@H](Cc1c[nH]cn1)C(=O)N[C@@H](Cc1c[nH]cn1)C(=O)N[C@@H](Cc1c[nH]cn1)C(=O)N[C@@H](Cc1c[nH]cn1)C(=O)N[C@@H](CCCNC(=N)N)C(=O)N[C@@H](CC(=O)O)C(=O)N[C@@H](Cc1ccc(O)cc1)C(=O)N[C@@H](CCCCN)C(=O)N[C@@H](CC(=O)O)C(=O)N[C@@H](CC(=O)O)C(=O)N[C@@H](CC(=O)O)C(=O)N[C@@H](CC(=O)O)C(=O)N[C@@H](CCCCN)C(=O)O)[C@@H](C)O)[C@@H](C)O)[C@@H](C)CC)[C@@H](C)O)C(C)C)[C@@H](C)O)[C@@H](C)CC (some centres unmarked) [Clone 10F3, XDTLHLKQIGGXPNCITQQDVRXTSIPYTYTWP]
Cys to Ser mutants, Table 6
  tolerance of Cys substitutions for 2G12 binding (in words): tolerated
  Fmax [%]: 100 ± 2.7%
  Kd: 3 ± 0.31 nM

## CC[C@H](C)[C@H](NC(=O)[C@H](CCCNC(=N)N)NC(=O)[C@@H]1CCCN1C(=O)[C@H](CC(=O)O)NC(=O)[C@H](CCC(=O)O)NC(=O)[C@@H](NC(=O)[C@H](C)NC(=O)[C@H](Cc1ccc(O)cc1)NC(=O)[C@H](CCC(N)=O)NC(=O)[C@H](CCc1cn(C2CCC(OC3O[C@H](CO[C@H]4O[C@H](CO[C@H]5O[C@H](CO)[C@@H](O)[C@H](O)[C@@H]5O[C@H]5O[C@H](CO)[C@@H](O)[C@H](O)[C@@H]5O)[C@@H](O)[C@H](O[C@H]5O[C@H](CO)[C@@H](O)[C@H](O)[C@@H]5O[C@H]5O[C@H](CO)[C@@H](O)[C@H](O)[C@@H]5O)[C@@H]4O)[C@@H](O)[C@H](O[C@H]4O[C@H](CO)[C@@H](O)[C@H](O)[C@@H]4O[C@H]4O[C@H](CO)[C@@H](O)[C@H](O)[C@@H]4O[C@H]4O[C@H](CO)[C@@H](O)[C@H](O)[C@@H]4O)[C@@H]3O)CC2)nn1)NC(=O)[C@H](CCCNC(=N)N)NC(=O)[C@H](Cc1ccc(O)cc1)NC(=O)[C@H](CCC(=O)O)NC(=O)[C@H](CC(C)C)NC(=O)[C@H](CO)NC(=O)[C@H](CC(N)=O)NC(=O)[C@H](CC(C)C)NC(=O)[C@@H](NC(=O)[C@H](CO)NC(=O)[C@H](CCCNC(=N)N)NC(=O)[C@H](CCc1cn(C2CCC(OC3O[C@H](CO[C@H]4O[C@H](CO[C@H]5O[C@H](CO)[C@@H](O)[C@H](O)[C@@H]5O[C@H]5O[C@H](CO)[C@@H](O)[C@H](O)[C@@H]5O)[C@@H](O)[C@H](O[C@H]5O[C@H](CO)[C@@H](O)[C@H](O)[C@@H]5O[C@H]5O[C@H](CO)[C@@H](O)[C@H](O)[C@@H]5O)[C@@H]4O)[C@@H](O)[C@H](O[C@H]4O[C@H](CO)[C@@H](O)[C@H](O)[C@@H]4O[C@H]4O[C@H](CO)[C@@H](O)[C@H](O)[C@@H]4O[C@H]4O[C@H](CO)[C@@H](O)[C@H](O)[C@@H]4O)[C@@H]3O)CC2)nn1)NC=O)[C@@H](C)O)[C@@H](C)O)C(=O)N[C@@H](CCCNC(=N)N)C(=O)N[C@@H](CCc1cn(C2CCC(OC3O[C@H](CO[C@H]4O[C@H](CO[C@H]5O[C@H](CO)[C@@H](O)[C@H](O)[C@@H]5O[C@H]5O[C@H](CO)[C@@H](O)[C@H](O)[C@@H]5O)[C@@H](O)[C@H](O[C@H]5O[C@H](CO)[C@@H](O)[C@H](O)[C@@H]5O[C@H]5O[C@H](CO)[C@@H](O)[C@H](O)[C@@H]5O)[C@@H]4O)[C@@H](O)[C@H](O[C@H]4O[C@H](CO)[C@@H](O)[C@H](O)[C@@H]4O[C@H]4O[C@H](CO)[C@@H](O)[C@H](O)[C@@H]4O[C@H]4O[C@H](CO)[C@@H](O)[C@H](O)[C@@H]4O)[C@@H]3O)CC2)nn1)C(=O)N[C@@H](C)C(=O)N[C@@H](CO)C(=O)N[C@H](C(=O)N1CCC[C@H]1C(=O)N[C@@H](Cc1ccc(O)cc1)C(=O)N[C@H](C(=O)N[C@@H](Cc1ccc(O)cc1)C(=O)N[C@@H](Cc1c[nH]c2ccccc12)C(=O)N[C@@H](Cc1c[nH]c2ccccc12)C(=O)N1CCC[C@H]1C(=O)NCC(=O)N[C@@H](CO)C(=O)NCC(=O)N[C@@H](CO)C(=O)N[C@@H](CC(C)C)C(=O)NCC(=O)N[C@@H](Cc1c[nH]cn1)C(=O)N[C@@H](Cc1c[nH]cn1)C(=O)N[C@@H](Cc1c[nH]cn1)C(=O)N[C@@H](Cc1c[nH]cn1)C(=O)N[C@@H](Cc1c[nH]cn1)C(=O)N[C@@H](Cc1c[nH]cn1)C(=O)N[C@@H](CCCNC(=N)N)C(=O)N[C@@H](CC(=O)O)C(=O)N[C@@H](Cc1ccc(O)cc1)C(=O)N[C@@H](CCCCN)C(=O)N[C@@H](CC(=O)O)C(=O)N[C@@H](CC(=O)O)C(=O)N[C@@H](CC(=O)O)C(=O)N[C@@H](CC(=O)O)C(=O)N[C@@H](CCCCN)C(=O)O)[C@@H](C)O)[C@@H](C)CC (some centres unmarked) [Clone 10F9, XRSTLNSLEYRXQYATEDPRIRXASIPYTYWWP]
  Fmax [%]: 86 ± 1.2%
  Kd: 3.1 ± 0.17 nM

— patent publication US11345912B2, “Directed evolution of multivalent glycopeptides that tightly bind to target proteins” (Brandeis University, priority 2013, dated 2022)
